Consider 1 compound from article PMC11357638 (Molecules, 2024).

Data set [1] has as its target T1, human TRPV4 (hTRPV4) channels (Homo sapiens, UniProt Q9HBA0).
T1 construct: expressed in transfected cells; host or cells: HEK293T
The data set can be described thus: Whole-cell patch-clamp selectivity, hTRPV4 in HEK293T cells. The format is cell-based. Particulars: HEK-293T; 1000 μM CA, current caused by 0.1 μM GSK1016790A, mean ± SD, n = 5.

Data set [2] addresses T2, human TRPM8 (hTRPM8) channels (Homo sapiens, UniProt Q7Z2W7).
T2 construct: expressed in transfected cells; host or cells: HEK293T
The data set can be described thus: Whole-cell patch-clamp selectivity, hTRPM8 in HEK293T cells. The format is cell-based. Particulars: HEK-293T; 1000 μM CA, current caused by 500 μM menthol, mean ± SD, n = 5.

Data set [3] concerns the target T3, hTRPV3 I637A mutant (Homo sapiens, UniProt Q8NET8, I637A).
T3 construct: expressed in transfected cells; host or cells: HEK293T
T3 sequence (Q8NET8 1-790 I637A): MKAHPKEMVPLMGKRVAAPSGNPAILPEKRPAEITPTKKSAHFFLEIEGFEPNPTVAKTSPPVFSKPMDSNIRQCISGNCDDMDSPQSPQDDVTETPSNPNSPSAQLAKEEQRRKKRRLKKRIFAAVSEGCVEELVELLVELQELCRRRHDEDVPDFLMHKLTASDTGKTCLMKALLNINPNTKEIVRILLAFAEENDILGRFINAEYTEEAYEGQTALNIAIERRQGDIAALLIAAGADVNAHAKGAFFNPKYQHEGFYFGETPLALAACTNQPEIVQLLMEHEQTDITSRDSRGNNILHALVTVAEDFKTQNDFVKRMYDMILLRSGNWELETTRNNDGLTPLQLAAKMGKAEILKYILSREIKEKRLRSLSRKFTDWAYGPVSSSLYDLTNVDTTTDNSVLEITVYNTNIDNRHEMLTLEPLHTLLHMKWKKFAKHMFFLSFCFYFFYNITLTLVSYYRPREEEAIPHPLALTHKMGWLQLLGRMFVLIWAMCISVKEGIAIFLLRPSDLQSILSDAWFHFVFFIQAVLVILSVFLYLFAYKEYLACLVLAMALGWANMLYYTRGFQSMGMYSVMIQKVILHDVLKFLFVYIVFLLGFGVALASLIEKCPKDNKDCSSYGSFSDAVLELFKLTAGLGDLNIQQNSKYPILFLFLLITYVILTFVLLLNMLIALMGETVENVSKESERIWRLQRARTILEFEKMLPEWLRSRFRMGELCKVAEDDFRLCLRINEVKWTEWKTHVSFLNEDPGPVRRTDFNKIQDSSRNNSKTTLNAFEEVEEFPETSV
The data set can be described thus: Whole-cell patch-clamp of hTRPV3 I637A mutant in HEK293T cells. The format is cell-based.

Data set [4] has as its target T4, hTRPV3 L670A mutant (Homo sapiens, UniProt Q8NET8, L670A).
T4 construct: expressed in transfected cells; host or cells: HEK293T
T4 sequence (Q8NET8 1-790 L670A): T3 sequence (Q8NET8 1-790 I637A) with A637I, L670A
The data set can be described thus: Whole-cell patch-clamp of hTRPV3 L670A mutant in HEK293T cells. The format is cell-based. Particulars: 50 μM 2-APB.

Data set [5] deals with TRPV3-mediated skin inflammation induced by carvacrol. The data set can be described thus: Mouse model of dorsal skin dermatitis induced by skin sensitizer carvacrol. Particulars: mice, subcutaneous CA 0.1 and 1 mM (100 μL) once a day for 5 days, topical 2% carvacrol, versus carvacrol model group. The format is in vivo, C57BL/6J mice.
Data set [6] has as its system HEK293T cells. The data set can be described thus: Cell viability of HEK293T cells (CCK-8 assay). The format is cell-based, human. Particulars: CA 1 mM, CCK-8, 6 hours treatment.
Data set [7] addresses T5, hTRPV3 F666A mutant (Homo sapiens, UniProt Q8NET8, F666A).
T5 sequence (Q8NET8 1-790 F666A): T3 sequence (Q8NET8 1-790 I637A) with A637I, F666A
The data set can be described thus: cell-based.

Where a chain is given by its changes, count along the chain named.

T1 sequence (Q9HBA0 whole entry): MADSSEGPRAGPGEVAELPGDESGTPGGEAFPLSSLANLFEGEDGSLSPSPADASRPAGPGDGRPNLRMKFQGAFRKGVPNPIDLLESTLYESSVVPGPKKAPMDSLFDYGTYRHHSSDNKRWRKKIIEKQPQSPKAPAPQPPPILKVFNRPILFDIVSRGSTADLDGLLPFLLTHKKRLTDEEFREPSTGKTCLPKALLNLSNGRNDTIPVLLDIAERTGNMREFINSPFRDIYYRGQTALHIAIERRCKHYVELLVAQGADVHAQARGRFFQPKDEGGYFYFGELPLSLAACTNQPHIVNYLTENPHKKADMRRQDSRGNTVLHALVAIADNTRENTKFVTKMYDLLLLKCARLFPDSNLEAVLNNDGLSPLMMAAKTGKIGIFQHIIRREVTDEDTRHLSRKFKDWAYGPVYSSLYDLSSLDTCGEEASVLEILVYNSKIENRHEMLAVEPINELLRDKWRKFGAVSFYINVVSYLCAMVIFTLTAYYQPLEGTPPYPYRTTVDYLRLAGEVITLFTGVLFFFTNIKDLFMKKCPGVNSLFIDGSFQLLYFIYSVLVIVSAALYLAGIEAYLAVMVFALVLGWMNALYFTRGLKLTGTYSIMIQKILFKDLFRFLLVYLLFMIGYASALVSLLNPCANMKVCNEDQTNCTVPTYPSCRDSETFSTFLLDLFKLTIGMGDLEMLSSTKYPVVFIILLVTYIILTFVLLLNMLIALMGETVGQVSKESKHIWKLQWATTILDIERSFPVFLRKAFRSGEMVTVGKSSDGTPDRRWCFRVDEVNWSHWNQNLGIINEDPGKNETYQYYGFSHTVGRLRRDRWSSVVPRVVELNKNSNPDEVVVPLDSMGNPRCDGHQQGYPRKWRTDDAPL
T2 sequence (Q7Z2W7 whole entry): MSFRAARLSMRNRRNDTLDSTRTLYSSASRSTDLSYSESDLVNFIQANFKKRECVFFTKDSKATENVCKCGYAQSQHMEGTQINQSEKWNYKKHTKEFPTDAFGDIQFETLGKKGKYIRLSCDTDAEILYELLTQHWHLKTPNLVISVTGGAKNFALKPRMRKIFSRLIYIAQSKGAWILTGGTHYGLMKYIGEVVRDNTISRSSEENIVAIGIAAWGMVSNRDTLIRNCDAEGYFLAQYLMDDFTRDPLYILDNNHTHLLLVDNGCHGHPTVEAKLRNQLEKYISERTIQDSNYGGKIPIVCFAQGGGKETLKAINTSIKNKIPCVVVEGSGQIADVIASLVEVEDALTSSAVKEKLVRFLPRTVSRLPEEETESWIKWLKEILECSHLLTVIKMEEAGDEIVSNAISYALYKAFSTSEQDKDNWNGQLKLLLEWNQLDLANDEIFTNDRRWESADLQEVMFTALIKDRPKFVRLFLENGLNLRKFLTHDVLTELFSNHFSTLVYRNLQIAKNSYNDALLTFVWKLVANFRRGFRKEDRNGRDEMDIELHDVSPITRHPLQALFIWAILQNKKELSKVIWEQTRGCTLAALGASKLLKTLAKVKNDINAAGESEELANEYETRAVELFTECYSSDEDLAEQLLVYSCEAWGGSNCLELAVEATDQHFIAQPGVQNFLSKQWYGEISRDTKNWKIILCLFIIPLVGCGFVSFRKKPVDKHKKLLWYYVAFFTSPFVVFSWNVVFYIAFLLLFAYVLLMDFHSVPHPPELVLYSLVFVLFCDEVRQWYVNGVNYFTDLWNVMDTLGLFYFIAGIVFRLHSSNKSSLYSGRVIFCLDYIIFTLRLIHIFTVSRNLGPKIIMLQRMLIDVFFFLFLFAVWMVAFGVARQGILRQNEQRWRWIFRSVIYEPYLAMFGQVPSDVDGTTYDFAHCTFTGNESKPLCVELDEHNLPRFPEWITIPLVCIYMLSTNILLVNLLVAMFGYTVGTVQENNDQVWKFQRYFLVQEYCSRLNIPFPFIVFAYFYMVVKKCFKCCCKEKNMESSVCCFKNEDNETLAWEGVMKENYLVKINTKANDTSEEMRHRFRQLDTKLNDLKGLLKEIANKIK

Take `O=C(O)/C=C/c1ccc(O)c(O)c1` [CA, caffeic acid]: the figures for the inhibition at 1000 µM in data set [1] and in data set [2] were ~4.6% and ~20.1%, respectively. Moreover, the IC50 in data set [3] (I637A hTRPV3, 50 μM 2-APB, +80 mV, Hill fit, read-out: IC50, inhibition of I637A mutant outward currents) came out at 306 ± 61.1 µM; in data set [7] it was 105 ± 4.8 µM. The “channel current inhibition by 500 μM CA compared to WT” value in data set [3] (I637A mutant, 50 μM 2-APB, 500 μM CA) is “significantly diminished”; in data set [4], “no significant difference”. In addition, the epidermal thickness entry in data set [5] (H&E sections) is on record as “reduced epidermal thickness”. The dermatitis scores result in data set [5] is recorded as “significantly reduced the dermatitis scores”. The “cytotoxicity (cell viability)” value in data set [6] is listed as “did not cause any noticeable cytotoxicity”.
